From ChEMBL document CHEMBL3638598, “Pyrazolo pyrimidine derivatives” (2014)

Biological target: G-prodeshotein coupled receptor 4 (Homo sapiens, UniProt P46093)
Test: Radio Ligand Binding Assay: Serial dilutions of compounds (stock in 10 mM DMSO) are prepared by first diluting the compounds in DMSO followed by a 1:50 dilution into assay buffer (10 mM HEPES, pH 8.0, 100 mM NaCl, 5 mM MgCl2, 1 mM CaCl2, 0.5% fatty acid-free BSA, 0.05% Tween-20). […] The desired amount of membranes (20 μg/well) is diluted with assay buffer. […] 100 μL of the membrane-suspension is added and the plate stirred for 60 minutes.

Chain of G-prodeshotein coupled receptor 4 (P46093 whole entry): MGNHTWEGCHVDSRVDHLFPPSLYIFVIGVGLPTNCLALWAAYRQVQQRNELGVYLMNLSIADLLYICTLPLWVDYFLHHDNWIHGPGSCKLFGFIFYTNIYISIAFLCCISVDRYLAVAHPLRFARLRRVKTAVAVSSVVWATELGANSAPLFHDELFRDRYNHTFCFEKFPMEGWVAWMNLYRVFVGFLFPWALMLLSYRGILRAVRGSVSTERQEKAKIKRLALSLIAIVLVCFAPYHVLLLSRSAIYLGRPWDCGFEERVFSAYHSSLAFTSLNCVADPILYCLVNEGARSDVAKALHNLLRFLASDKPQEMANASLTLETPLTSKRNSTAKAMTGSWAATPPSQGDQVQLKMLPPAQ

IC50 | Structure (SMILES)
35 nM | CCc1nn2c(C)cc(C)nc2c1Cc1ccc(OC[C@H]2CC[C@@H](N)CC2)cc1
54 nM | CCc1nn2c(C)cc(C)nc2c1Cc1ccc(OC[C@H]2CC[C@@H](NC(=O)[C@H]3NCC[C@H]3O)CC2)cc1

Structure (SMILES) | IC50
CCc1nn2c(C)cc(C)nc2c1Cc1ccc(OCC2CCNCC2)cc1 | 22 nM
